Results taken from patent publication US9669063B2, “Composition for prevention, amelioration or treatment of metabolic syndrome” (MORISHITA JINTAN CO., LTD., priority 2012, dated 2017).

System: diet-induced obese mice
Experiment: Test Example 2: diet-induced obese mice on low-calorie feed with RHP, caffeine or their mixture, body weight, calorie intake, epididymal fat
Format: in vivo, KK mice
Procedure: Mice were fed with a high-calorie feed for the preparation of diet-induced obese mice. The calorie intake of the diet-induced obese mice was restricted so as to induce a state of facilitated resolution and utilization of body fat, and then the composition of the present invention containing a rose hip extract and caffeine was given to the mice. In this way, examination was conducted to determine whether the composition could facilitate the resolution and utilization of body fat and thereby ameliorate obesity. Five-week-old male KK mice were fed with water and the powder feed for breeding for three days, and then fed with the high-calorie feed for 3 weeks for the preparation of diet-induced obese mice. The diet-induced obese mice were divided into three groups (six mice per group) and fed with the feed (1) to (3) shown below for 2 weeks. The feeds given to the test groups are as follows. […] After the end of the test, the mice were euthanized, and epididymal fat tissue was harvested and weighed. […] The results are shown as the mean±SD of each group. Diet-induced obese mice were divided into four groups (six mice per group) and fed with the feed (4) to (7) shown below. Other test conditions were the same as in Test Example 1. The results in Table 3 were statistically analyzed by Dunnett's multiple comparison test. The symbol ** indicates a significant difference with a risk less than 1% from the control group.

## Cn1c(=O)c2c(ncn2C)n(C)c1=O [caffeine]
0.025 mass % caffeine in low-calorie feed
  reduction in weight of epididymal fat tissue as compared with the control group: 9.2%
0.025 mass % caffeine in low-calorie feed, Dunnett's test
  statistical significance of fat-reducing effect vs control: none of them showed any statistically significant fat-reducing effect
low-calorie feed + 0.025 mass % caffeine, 2 weeks, last day of test, mean±SD
  Body weight: 35.2 ± 1.8 g
low-calorie feed + 0.025 mass % caffeine, 2 weeks, mean±SD
  Epididymal fat weight: 1.60 ± 0.19 g/100 g body weight
